Results: publication PMC12040169 (PLOS Biology, 2025)
Several values for one entry are separate records, joined by “and”; a condition that tells them apart may be missing. Identical values can stand only once.

Legend:
HeLa = settings: bulk resorufin, single well, 28.5 h, 10 µM, Bulk resorufin fluorescence
in vitro [1] = settings: human, hela cells, % viability
[2] = test system: T1, CTL2-GFP (C. trachomatis L2/434/Bu, GFP-expressing); test: microbe, parasite or virus in culture; set-up: Intracellular C. trachomatis growth in HeLa cells, bulk GFP fluorescence relative to DMSO; settings: Chlamydia trachomatis, HeLa, 28.5 h; bulk GFP, mean of 2; read-out: % of control remaining
T1 construct: L2/434/Bu, GFP-expressing
Protocol: MICs were calculated as described above.

in vitro [3] = test: in vitro; set-up: Viability of infected HeLa host cells, resazurin conversion, bulk resorufin fluorescence relative to DMSO; settings: human, hela cells; bulk resorufin, mean of 2
[4] = test system: T2, C. trachomatis L2/434/Bu expressing GFP (CTL2-GFP); test: microbe, parasite or virus in culture; set-up: C. trachomatis total inclusion area by high-content imaging, normalised to DMSO; settings: Chlamydia trachomatis, HeLa, 28.5 h; total inclusion area; read-out: % of control remaining
T2 construct: L2/434/Bu GFP intracellular growth in HeLa cells
Procedure, shortened: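 Infected cells treated with library compounds were read for bulk GFP (chlamydial growth) and resorufin fluorescence (host viability), then fixed, Hoechst-stained and imaged. Inclusion area and number from GFP, plus nuclei counts, served as additional growth and viability proxies; MICs derived as previously described.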

| Structure (SMILES) | % viability (HeLa) | viability at 28.5 h, 10 µM (in vitro [1]) | also measured |
| --- | --- | --- | --- |
| CCOC(=O)c1c(NS(=O)(=O)c2ccc(NC(C)=O)cc2)sc2c1CCCC2 [CBK004658] | 99.8% | 90.3% |  |
| Nc1nc(Nc2ccccc2)nc(C(F)(F)F)n1 [CBK004712] | 72% | 89.8% |  |
| O=[N+]([O-])c1c(-c2cn[nH]c2)n[nH]c1-c1cn[nH]c1 [CBK008388] | 93.4% | 86.2% |  |
| CCN(CC)c1ccc2cc(/C(C)=N/O)c(=O)oc2c1 [CBK009063] | 108% and 84.7% |  |  |
| CC(=O)NC[C@H]1CN(c2ccc(-c3cc4ccccc4n3C(=O)OC(C)(C)C)c(F)c2)C(=O)O1 [CBK011849] | 82.6% | 98.1% |  |
| Cc1cn(C2CC(O)C(CO)O2)c(=S)[nH]c1=O (stereo not drawn) [CBK012339] | 112% and 90.8% |  |  |
| O=C(O)Cc1cc(C(=O)/C=C/c2c(Cl)cccc2Cl)ccc1O [CBK013106] | 100% | 99% |  |
| S=c1[nH]nc(-c2sc3ccccc3c2Cl)[nH]1 [CBK013698] | 90.2% | 96.3% |  |
| O=C(Nc1nc[nH]n1)NC1CCCCC1 [CBK017342] | 119% and 94.5% |  |  |
| CC(C)c1n[nH]c2c1/C(=N\N)c1ccccc1-2 [CBK017384] | 73.8% | 85.4% |  |
| CS(=O)(=O)Nc1ccc2[nH]c(=O)c(C(=O)NCc3ccc(Cl)cc3)cc2c1 [CBK017560] | 102% | 97.9% |  |
| CCCO/N=C\c1ccc(-n2cnnc2)cc1 [CBK018921] | 77.5% and 99.8% |  |  |
| COc1ccc(-n2ccc(=O)c(Cc3c(Cl)cccc3Cl)c2C)cc1 [CBK019186] | 106% | 89.2% |  |
| CC1=C/C(=C(\C#N)C(N)=O)NC(c2ccccc2O)=N1 [CBK019764] | 95.3% | 111% |  |
| Cc1nc2ccccc2n1C(=O)c1sc2ccccc2c1Cl [CBK020557] | 115% | 106% |  |
| O=C(O)/C(SC1=NC2=Nc3ccccc3C2N=N1)=C1/C(=O)Nc2ccccc21 (stereo not drawn) [CBK021943] | 96% | 100% |  |
| S=C(Nc1ccc(C2=NCCO2)cc1)Nc1ccc(Cl)c(Cl)c1 [CBK022344] | 106% | 90.6% |  |
| CNC1=NC2CCCCC2O1 (stereo not drawn) [CBK023075F] | 111% | 117% |  |
| O=C(O)c1c(NS(=O)(=O)c2ccc(Oc3ccccc3)cc2)sc2c1CCCC2 [CBK024820] | 106% | 101% |  |
| CC(=O)NC(NS(=O)(=O)c1ccccc1)(C(F)(F)F)C(F)(F)F [CBK025820] | 92.5% | 98.4% |  |
| O=C1CSC(Nc2ccc(Br)cc2)=N1 [CBK026413] | 88.5% | 79.9% |  |
| O=C(Nc1cncc(OC2CCNCC2)n1)C1CCC1 [CBK026728T] | 94% | 81.9% |  |
| CC1=CC(C)C(C(=O)O)C(C(=O)N2CCN(C)CC2)C1 (stereo not drawn) [CBK027311] | 102% |  |  |
| Cc1sc(NC(=O)C(F)(F)F)c(C(N)=O)c1C [CBK027775] | 94.1% | 99.4% |  |
| Brc1ccc(CSc2nc[nH]n2)cc1 [CBK027819] | 98.5% |  |  |
| Cc1c(NC(=O)OC(C)C)sc(=S)n1C [CBK028089] | 83.7% | 88.9% |  |
| O=C(CNS(=O)(=O)c1ccc(Br)cc1)N1CCOCC1 [CBK034469] | 87% | 96% |  |

| Structure (SMILES) | % viability (HeLa) | viability at 28.5 h, 10 µM (in vitro [1]) | also measured |
| --- | --- | --- | --- |
| CCOc1ccsc1C(=O)NCc1ccc(OC2CCNCC2)cc1 [CBK036355T] | 114% | 106% |  |
| COCCn1cnc2sc(C(=O)NCc3ccccc3OC)c(C)c2c1=O [CBK071862] | 95.1% and 64.7% |  |  |
| Clc1ccc(COc2nccnc2OC2CCN(CC3CC3)CC2)cc1Cl [CBK083123] | 104% |  |  |
| O=C(O)c1cc(S(=O)(=O)NCc2ccco2)c(Cl)cc1Cl [CBK113171] | 107% and 83.2% |  |  |
| Cc1cc(CC(=O)N2CCCC3(CCN(C(=O)c4ccoc4)C3)C2)on1 (stereo not drawn) [CBK131628] | 106% and 82.1% |  |  |
| COC(=O)c1ccc(-c2cc3ccccc3o2)nc1 [CBK149228] | 96.5% |  |  |
| COc1ccc(CCNC(=O)C2CCCCC2C(=O)O)cc1 (stereo not drawn) [CBK262636] | 86.3% and 110% |  |  |
| O=C(O)c1ccc(CNCc2c(F)cccc2Cl)cc1 [CBK269496C] | 111% |  |  |
| O=C(O)c1ccc(CNCc2c(F)cccc2Cl)cc1 [CBK269496] | 82.3% |  |  |
| O=C(O)c1cccc(S(=O)(=O)N2CCN(C(=O)c3ccccc3)CC2)c1 [CBK275920] | 113% and 91.5% and 99.3% |  |  |
| O=C(CN1C(=O)[C@H]2CCCN2C(=O)c2ccccc21)NC1CC1 [CBK282436] | 122% and 91.3% |  |  |
| CC(C)NC(=O)CN1C(=O)[C@H]2CCCN2C(=O)c2ccccc21 [CBK282437] | 112% and 88.6% |  |  |
| C[C@@H]1CN(Cc2ccco2)CCN1C(=O)Cc1ccccc1F [CBK284257] | 83.4% and 106% |  |  |
| O=C(NC[C@H]1CCCN(C(=O)c2ccccn2)C1)c1cccs1 [CBK284262] | 105% and 83.9% |  |  |
| O=C(NC1CC1)[C@@H]1C=CCN1C(=O)c1ccc(F)cc1F [CBK284279] | 80.5% and 104% |  |  |
| Cc1cc(NC(=O)c2ccc(Br)o2)nc2c1c(=O)oc1ccccc12 [CBK287440] | 85.8% and 119% |  |  |
| COc1ccc(C(=O)Nc2nc3nc(C)cc(C)c3s2)cc1 [CBK287755] | 105% and 83% |  |  |
| Oc1ccc(Nc2ncnc3c2oc2ccccc23)cc1 [CBK287967] | 92.3% and 113% |  |  |
| O=c1[nH][nH]c2c1cnc1c(C(F)(F)F)cccc12 [CBK287996] | 113% and 84.4% |  |  |
| O=c1[nH]nc(COc2ccc(Br)cc2)o1 [CBK288526] | 110% and 86.7% |  |  |
| Cc1c(C(=O)O)sc2nc(SCC(=O)NCc3ccccc3)[nH]c(=O)c12 [CBK301214K] | 107% |  |  |
| COc1cc(OC)c(CCNC2CCCc3c2cnn3C)c(OC)c1 (stereo not drawn) [CBK304482] |  | 111% | activity at 1 µM [2]: 147%; activity at 5 µM [2]: 156%; activity at 10 µM [2]: 135%; viability at 28.5 h, 1 µM (in vitro [3]): 97.4%; viability at 28.5 h, 5 µM (in vitro [3]): 91.3%; viability at 28.5 h, 10 µM (in vitro [3]): 93.8%; activity at 1 µM [4]: 102%; activity at 5 µM [4]: 131%; activity at 10 µM [4]: 56.7% |
| CN1CCOC(CNc2nc(-c3ccncc3)nc3c2CCC3)C1 (stereo not drawn) [CBK304890] |  | 87% | activity at 1 µM [2]: 141%; activity at 5 µM [2]: 112%; activity at 10 µM [2]: 126%; viability at 28.5 h, 1 µM (in vitro [3]): 90.5%; viability at 28.5 h, 5 µM (in vitro [3]): 92.8%; viability at 28.5 h, 10 µM (in vitro [3]): 99.5%; activity at 1 µM [4]: 46.1%; activity at 5 µM [4]: 45.8%; activity at 10 µM [4]: 25.1% |
| CCCc1cc(C(=O)N2CCN(c3nccc(OC)n3)CC2)[nH]n1 [CBK304898] |  | 87% | activity at 1 µM [2]: 148%; activity at 5 µM [2]: 151%; activity at 10 µM [2]: 156%; viability at 28.5 h, 1 µM (in vitro [3]): 89.4%; viability at 28.5 h, 5 µM (in vitro [3]): 93.7%; viability at 28.5 h, 10 µM (in vitro [3]): 89.2%; activity at 1 µM [4]: 127%; activity at 5 µM [4]: 120%; activity at 10 µM [4]: 43.6% |
| CC1CC(C)CN(Cc2csc(NC(=O)Cc3ccc(Cl)cc3)n2)C1 (stereo not drawn) [CBK306142] |  | 81.1% | activity at 1 µM [2]: 150%; activity at 5 µM [2]: 112%; activity at 10 µM [2]: 75.2%; viability at 28.5 h, 1 µM (in vitro [3]): 87.7%; viability at 28.5 h, 5 µM (in vitro [3]): 91.3%; viability at 28.5 h, 10 µM (in vitro [3]): 86%; activity at 1 µM [4]: 140%; activity at 5 µM [4]: 48.4%; activity at 10 µM [4]: 46.1% |
| OCC1(CNc2ncc(F)c(N3CCCC3)n2)CCOCC1 [CBK306647] |  | 87.3% | activity at 1 µM [2]: 108%; activity at 5 µM [2]: 64.2%; activity at 10 µM [2]: 59%; viability at 28.5 h, 1 µM (in vitro [3]): 100%; viability at 28.5 h, 5 µM (in vitro [3]): 93.8%; viability at 28.5 h, 10 µM (in vitro [3]): 95.5%; activity at 1 µM [4]: 130%; activity at 5 µM [4]: 60.9%; activity at 10 µM [4]: 47.1% |
